Data reported in patent US20260325605A1, “INHIBITORS” (Zealand Pharma A/S, priority 2022, published 2026).
pIC50: −log10 of the molar value.

Assays:
[1] = system: collagen-induced arthritis in rats; assay: Example 9: Rat collagen-induced arthritis (CIA) model, clinical score; format: in vivo, rat (Lewis); design: key: qualitative severity score summed over four paws, maximum 16
Method: Vehicle: 10 mM phosphate pH 6+0.8% NaCl+0.05% polysorbate 20
Peptide: Peptide 100 is formulated in vehicle at 50 nmol/mL. Dosing volume was individually adjusted according to the body weight of each animal to reach the target dose of peptide 100 of 100 nmol/kg.
The animal care facility employed is accredited by AAALAC. Female Lewis rats, weighing 180±20 g at delivery were used for this study. Following arrival in the animal facility, all animals were subjected to a general health evaluation. An acclimation period of 1 day was allowed before the beginning of the study.
Animals were grouped into 9 each based on their body weight. All animals were challenged with porcine type-II collagen with incomplete Freund's adjuvant on day 1 (0.2 mg/0.2 mL/rat, subcutaneously at the base of the tail) and boosted on day 7 (0.1 mg/0.1 mL/rat, s.c.). In the study dexamethasone given daily PO at 0.3 mg/kg was used as a positive control.
From day 12 to day 30, peptide 100 was administered as a single bolus either daily (QD), every third day (Q3D) or every fifth day (Q5D) subcutaneously into the flank. […] The peptide and vehicle were dosed at a volume of 2 mL/kg. Dosing volume was individually adjusted according to the body weight of each animal to reach the target dose of formulation 1 of 100 nmol/kg.
Disease was assessed by using a qualitative severity score system (see below, maximum score of 16) on days 1, 7, 10, 12 (before dosing), 13, 14, 15, 16, 17, 18, 19, 20, 21, 22, 24, 26 and 28 before peptide treatment and one hour after treatment on day 30.
The disease severity score is based on the following:
The ability of Kv1.3 inhibitor treatment to reduce chronic inflammation in arthritis was investigated by comparing the response in rats (n=9 animals/group) treated with vehicle to that of rats treated with peptide 100 daily, every third day or every fifth day. The severity of arthritis was determined by summation of the disease score on all four paws from day 12 to day 30 for each animal.

[2] = system: T-cell activation in rat whole blood; assay: Example 4: IL-17A release in thapsigargin stimulated rat whole blood; format: cell-based, rat (Lewis or Sprague-Dawley); conditions: 24 Hr, at least 2 replicates, unit inferred, read-out: IC50 (inhibition of IL-17A release)
Summary of the method: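 Heparinised whole blood from naïve Lewis or Sprague-Dawley rats preincubated ≥5 min at RT with peptide, then stimulated with thapsigargin (40 μM stock added as one quarter of well volume) for 24 h at 37 °C. Supernatant IL-17A measured by ELISA; IC50 from curves normalised to stimulated and unstimulated controls, ≥2 replicates.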

## H-P[Nle]E[Nle]RC(1)SASVEC(2)KQKC(3)LAAIGSIFGKC(1)[Nle]NKKC(2)KC(3)YPR-OH [Peptide 100]
[1]; 100 nmol/kg s.c. daily, every third day or every fifth day, day 12 to day 30, in words
  Mean clinical score: reduction of the mean clinical score with all dosing regimens
[1]; Q3D SC 100 nmol/kg, day 12
  Mean clinical score: 0.8
[1]; Q3D SC 100 nmol/kg, day 13
  Mean clinical score: 2.0
[1]; Q3D SC 100 nmol/kg, day 14
  Mean clinical score: 4.1
[1]; Q3D SC 100 nmol/kg, day 15
  Mean clinical score: 4.4
[1]; Q3D SC 100 nmol/kg, day 16
  Mean clinical score: 5.0
[1]; Q3D SC 100 nmol/kg, day 17
  Mean clinical score: 5.6
[1]; Q3D SC 100 nmol/kg, day 18
  Mean clinical score: 6.4
[1]; Q3D SC 100 nmol/kg, day 19
  Mean clinical score: 6.6
[1]; Q3D SC 100 nmol/kg, day 20
  Mean clinical score: 7.2
[1]; Q3D SC 100 nmol/kg, day 21
  Mean clinical score: 7.3
[1]; Q3D SC 100 nmol/kg, day 22
  Mean clinical score: 8.0
[1]; Q3D SC 100 nmol/kg, day 24
  Mean clinical score: 8.2
[1]; Q3D SC 100 nmol/kg, day 26
  Mean clinical score: 8.4
[1]; Q3D SC 100 nmol/kg, day 28
  Mean clinical score: 9.0
[1]; Q3D SC 100 nmol/kg, day 30
  Mean clinical score: 10.0
[1]; Q5D SC 100 nmol/kg, day 12
  Mean clinical score: 2.4
[1]; Q5D SC 100 nmol/kg, day 13
  Mean clinical score: 3.3
[1]; Q5D SC 100 nmol/kg, day 14
  Mean clinical score: 4.6
[1]; Q5D SC 100 nmol/kg, day 15
  Mean clinical score: 4.9
[1]; Q5D SC 100 nmol/kg, day 16
  Mean clinical score: 5.4
[1]; Q5D SC 100 nmol/kg, day 17
  Mean clinical score: 5.8
[1]; Q5D SC 100 nmol/kg, day 18
  Mean clinical score: 6.2
[1]; Q5D SC 100 nmol/kg, day 19
  Mean clinical score: 6.4
[1]; Q5D SC 100 nmol/kg, day 20
  Mean clinical score: 6.9
[1]; Q5D SC 100 nmol/kg, day 21
  Mean clinical score: 7.1
[1]; Q5D SC 100 nmol/kg, day 22
  Mean clinical score: 7.6
[1]; Q5D SC 100 nmol/kg, day 24
  Mean clinical score: 8.2
[1]; Q5D SC 100 nmol/kg, day 26
  Mean clinical score: 8.5
[1]; Q5D SC 100 nmol/kg, day 28
  Mean clinical score: 9.0
[1]; Q5D SC 100 nmol/kg, day 30
  Mean clinical score: 9.4
[1]; QD SC 100 nmol/kg, day 12
  Mean clinical score: 0.8
[1]; QD SC 100 nmol/kg, day 13
  Mean clinical score: 2.1
[1]; QD SC 100 nmol/kg, day 14
  Mean clinical score: 4.3
[1]; QD SC 100 nmol/kg, day 15
  Mean clinical score: 4.7
[1]; QD SC 100 nmol/kg, day 16
  Mean clinical score: 5.8
[1]; QD SC 100 nmol/kg, day 17
  Mean clinical score: 6.0
[1]; QD SC 100 nmol/kg, day 18
  Mean clinical score: 6.6
[1]; QD SC 100 nmol/kg, day 19
  Mean clinical score: 6.7
[1]; QD SC 100 nmol/kg, day 20
  Mean clinical score: 7.0
[1]; QD SC 100 nmol/kg, day 21
  Mean clinical score: 7.1
[1]; QD SC 100 nmol/kg, day 22
  Mean clinical score: 7.1
[1]; QD SC 100 nmol/kg, day 24
  Mean clinical score: 6.9
[1]; QD SC 100 nmol/kg, day 26
  Mean clinical score: 7.0
[1]; QD SC 100 nmol/kg, day 28
  Mean clinical score: 7.8
[1]; QD SC 100 nmol/kg, day 30
  Mean clinical score: 8.4
[2]
  pIC50: 9.37
